Experimental data taken from ChEMBL document CHEMBL4811258, “Potent Antimalarials with Development Potential Identified by Structure-Guided Computational Optimization of a Pyrrole-Based Dihydroorotate Dehydrogenase Inhibitor Series” (J Med Chem, 2021).
pEC50, pIC50: −log10 of the molar value. Converted amounts (≈) assume the structure as drawn. Values belong to the compound of their own block, whether it stands above or below them. The source made the active and inactive calls. The rule behind the calls is not given here.

What was measured:
physchem [1] = details: FaSSGF, pH 1.6
in vitro [2] = details: human, caco-2, pH 7.4
in vitro [3] = details: human, caco-2, pH 7.4; remark: listed apart in the source
[4] = AUC (0 to infinity) in Swiss mouse at 10 mg/kg, po measured up to 24 hrs by LC-MS analysis; assay type: ADME, organism-based; design: route oral, dose 10 mg/kg, time <=24; details: in vivo
Plasmodium falciparum [5] = assay: Antiplasmodial activity against Plasmodium falciparum 3D7 Uganda infected in human erythrocytes assessed as parasite killing using albumax media measured after 72 hrs by SYBR Green assay; assay type: functional, organism-based; details: 3D7, 72 h
in vitro [6] = details: mouse, plasma
[7] = Tmax in Swiss mouse at 10 mg/kg, po measured up to 24 hrs by LC-MS analysis; assay type: ADME, organism-based; details: in vivo
physchem [8] = details: PBS, pH 7.4
Plasmodium falciparum [9] = assay: Antimalarial activity against Plasmodium falciparum 3D70087/N9 infected in orally dosed NOD-SCID IL2Rgamma null mouse assessed as parasitemia level in human red blood cells at 16.7 mg/kg, po administered days after 1 day post infection twice daily for 6 days measured on day 7 by flow cytometry; assay type: functional, organism-based; details: time 6.0 day
Albumin = Albumin (Bos taurus, UniProt P02769); assay: Binding affinity to bovine serum albumin by Albumax assay; assay type: ADME; details: cattle, isolated protein
physchem [10] = details: FeSSIF, pH 5.8
[11] = Plasma clearance in Swiss mouse at 1 mg/kg, iv measured up to 24 hrs by LC-MS analysis; assay type: ADME, organism-based
[12] = Intrinsic clearance in mouse liver microsomes at 1 uM measured up to 4 hrs by LC-MS analysis; assay type: ADME, Microsome
[13] = Binding affinity to microsome (unknown origin); assay type: ADME; details: microsomes
[14] = Volume of distribution at steady state in Sprague-Dawley rat at […], iv measured up to 24 hrs; assay type: ADME, organism-based; details: in vivo, dose 2.6 mg/kg, read-out: Vdss
[15] = Oral bioavailability in Swiss mouse at 10 mg/kg measured up to 24 hrs by LC-MS analysis; assay type: ADME, organism-based; details: in vivo
[16] = Oral bioavailability in Sprague-Dawley rat at 19 mg/kg measured up to 24 hrs; assay type: ADME, organism-based; details: in vivo
[17] = Unbound intrinsic clearance in mouse liver microsomes at 1 uM measured up to 4 hrs by LC-MS analysis; assay type: ADME, Microsome
[18] = Half life in Swiss mouse at 10 mg/kg, po measured up to 24 hrs by LC-MS analysis; assay type: ADME, organism-based; details: in vivo
[19] = Volume of distribution at steady state in Swiss mouse at 1 mg/kg, iv measured up to 24 hrs by LC-MS analysis; assay type: ADME, organism-based; details: in vivo, read-out: Vdss
Plasmodium falciparum [20] = assay: Antiplasmodial activity against Plasmodium falciparum Uganda field isolated from patients infected in human erythrocytes assessed as parasite killing using albumax media measured after 72 hrs by SYBR Green assay; assay type: functional, organism-based
Plasmodium falciparum [21] = assay: Antiplasmodial activity against Plasmodium falciparum Dd2 Uganda infected in human erythrocytes assessed as parasite killing using albumax media measured after 72 hrs by SYBR Green assay; assay type: functional, organism-based; details: Dd2, 72 h
Plasmodium falciparum [22] = assay: Antimalarial activity against Plasmodium falciparum 3D70087/N9 infected in NOD-SCID IL2Rgamma null mouse assessed as parasitemia level at 10 mg/kg, po administered days after 3 post infection once daily for 4 days measured on day 7 by flow cytometry; assay type: functional, organism-based; details: time 4.0 day
in vitro [23] = details: rat, plasma
[24] = Plasma clearance in Sprague-Dawley rat at […], iv measured up to 24 hrs; assay type: ADME, organism-based; details: dose 2.6 mg/kg
Plasmodium falciparum [25] = assay: Antimalarial activity against Plasmodium falciparum 3D70087/N9 infected in orally dosed NOD-SCID IL2Rgamma null mouse assessed as parasitemia level administered days after 3 post infection once daily for 4 days measured on day 7 by flow cytometry; assay type: functional; details: time 4 day
physchem [26] = details: FaSSIF, pH 6.5
[27] = Tmax in Sprague-Dawley rat at 19 mg/kg, po measured up to 24 hrs; assay type: ADME, organism-based; details: in vivo
[28] = Apparent half life in Sprague-Dawley rat at 19 mg/kg, po measured up to 24 hrs; assay type: ADME, organism-based; details: in vivo, read-out: t1/2(app) (converted)
in vitro [29] = details: human, plasma
[30] = AUC (0 to infinity) in Sprague-Dawley rat at 19 mg/kg, po measured up to 24 hrs; assay type: ADME, organism-based; design: route oral, dose 19 mg/kg, time <=24; details: in vivo
[31] = Cmax in Sprague-Dawley rat at 19 mg/kg, po measured up to 24 hrs; assay type: ADME, organism-based; design: route oral, dose 19 mg/kg, time <=24; details: in vivo
[32] = Unbound AUC in orally dosed NOD-SCID IL2Rgamma null mouse infected with Plasmodium falciparum 3D70087/N9 administered days after 3 post infection once daily for 4 days measured on day 7 by flow cytometry; assay type: ADME, organism-based; details: in vivo, po, 96 h, time 4 day
[33] = Cmax in Swiss mouse at 10 mg/kg, po measured up to 24 hrs by LC-MS analysis; assay type: ADME, organism-based; design: route oral, dose 10 mg/kg, time <=24; details: in vivo
Plasmodium falciparum [34] = assay: microbe, parasite or virus in culture; details: 3D7, 72 h
[35] = Inhibition of Plasmodium falciparum DHODH expressed in Escherichia coli BL21-DE3 using L-dihydroorotate as substrate by steady-state DCIP method
[36] = molecular target: Dihydroorotate dehydrogenase (quinone), mitochondrial (Homo sapiens, UniProt Q02127); assay type: ADME
[37] = Lipophilicity, logD of compound at pH 7.4; assay type: physicochemical; details: buffer
[38] = Inhibition of Plasmodium vivax DHODH expressed in Escherichia coli BL21-DE3 using L-dihydroorotate as substrate by steady-state DCIP method
[39] = Oral bioavailability in mouse at 19 mg/kg; assay type: ADME, organism-based; details: in vivo
Plasmodium falciparum [40] = tested on: Plasmodium falciparum
Cytochrome P450 3A4 = Cytochrome P450 3A4 (Homo sapiens, UniProt P08684)
[41] = Inhibition of dog DHODH up to 100 uM; design: species or system Canis lupus familiaris
[42] = molecular target: Dihydroorotate dehydrogenase (quinone), mitochondrial (Mus musculus, UniProt O35435); assay: Inhibition of mouse DHODH up to 100 uM
L1210 = assay: Cytotoxicity against mouse L1210 cells; assay type: cell-based
[43] = Mutagenicity in Salmonella typhimurium by Ames test; assay type: toxicity; details: salmonella enterica subsp. enterica serovar typhimurium
[44] = molecular target: Dihydroorotate dehydrogenase (quinone), mitochondrial (Rattus norvegicus, UniProt Q63707); assay: Inhibition of rat DHODH up to 100 uM
HepG2 = assay: Cytotoxicity against human HepG2 cells; assay type: cell-based
Plasmodium falciparum [45] = assay: Antimalarial activity against Plasmodium falciparum 3D70087/N9 infected in orally dosed NOD-SCID IL2Rgamma null mouse assessed as parasitemia level in human red blood cells at 10 to 100 mg/kg, po administered days after 1 day post infection twice daily for 6 days measured on day 7 by flow cytometry; assay type: functional, organism-based; details: dose 10-100 mg/kg

Sequence of Dihydroorotate dehydrogenase (quinone), mitochondrial (Homo sapiens, UniProt Q02127) (Q02127 whole entry): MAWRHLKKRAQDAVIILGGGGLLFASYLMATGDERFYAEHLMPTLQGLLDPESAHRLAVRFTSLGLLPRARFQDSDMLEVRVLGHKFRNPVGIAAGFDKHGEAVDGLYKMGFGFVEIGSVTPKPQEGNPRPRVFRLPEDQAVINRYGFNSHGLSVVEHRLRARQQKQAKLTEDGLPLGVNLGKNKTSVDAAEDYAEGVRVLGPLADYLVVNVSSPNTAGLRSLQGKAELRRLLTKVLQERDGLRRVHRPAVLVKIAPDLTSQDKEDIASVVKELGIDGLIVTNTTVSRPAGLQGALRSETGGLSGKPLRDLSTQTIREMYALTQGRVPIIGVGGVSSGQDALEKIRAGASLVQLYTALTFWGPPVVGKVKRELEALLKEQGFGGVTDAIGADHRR
Sequence of Cytochrome P450 3A4 (P08684 whole entry): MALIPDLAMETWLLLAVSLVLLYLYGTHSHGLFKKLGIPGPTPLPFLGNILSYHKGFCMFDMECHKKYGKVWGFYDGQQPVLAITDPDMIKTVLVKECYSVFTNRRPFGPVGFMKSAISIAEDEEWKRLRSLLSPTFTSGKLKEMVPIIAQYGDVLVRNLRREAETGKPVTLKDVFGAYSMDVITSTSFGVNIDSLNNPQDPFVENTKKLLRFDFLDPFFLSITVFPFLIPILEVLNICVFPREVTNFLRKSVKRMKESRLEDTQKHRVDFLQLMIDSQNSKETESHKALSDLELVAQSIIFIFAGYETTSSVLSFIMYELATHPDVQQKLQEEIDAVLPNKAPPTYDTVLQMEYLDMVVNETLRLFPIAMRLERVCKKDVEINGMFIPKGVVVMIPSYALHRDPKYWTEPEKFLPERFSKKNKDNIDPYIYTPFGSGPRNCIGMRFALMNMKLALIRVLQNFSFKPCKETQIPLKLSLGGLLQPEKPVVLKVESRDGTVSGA
Sequence of Dihydroorotate dehydrogenase (quinone), mitochondrial (Mus musculus, UniProt O35435) (O35435 whole entry): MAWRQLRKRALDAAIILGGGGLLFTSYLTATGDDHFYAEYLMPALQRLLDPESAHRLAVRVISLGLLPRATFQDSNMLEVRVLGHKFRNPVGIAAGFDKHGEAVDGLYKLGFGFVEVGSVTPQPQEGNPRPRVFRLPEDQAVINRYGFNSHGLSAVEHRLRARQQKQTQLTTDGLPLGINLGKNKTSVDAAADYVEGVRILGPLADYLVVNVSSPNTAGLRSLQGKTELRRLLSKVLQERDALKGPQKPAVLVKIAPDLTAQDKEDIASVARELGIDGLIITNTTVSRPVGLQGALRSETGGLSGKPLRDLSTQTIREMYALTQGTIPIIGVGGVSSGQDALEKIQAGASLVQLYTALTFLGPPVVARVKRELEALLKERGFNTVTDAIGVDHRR
Sequence of Albumin (P02769 whole entry): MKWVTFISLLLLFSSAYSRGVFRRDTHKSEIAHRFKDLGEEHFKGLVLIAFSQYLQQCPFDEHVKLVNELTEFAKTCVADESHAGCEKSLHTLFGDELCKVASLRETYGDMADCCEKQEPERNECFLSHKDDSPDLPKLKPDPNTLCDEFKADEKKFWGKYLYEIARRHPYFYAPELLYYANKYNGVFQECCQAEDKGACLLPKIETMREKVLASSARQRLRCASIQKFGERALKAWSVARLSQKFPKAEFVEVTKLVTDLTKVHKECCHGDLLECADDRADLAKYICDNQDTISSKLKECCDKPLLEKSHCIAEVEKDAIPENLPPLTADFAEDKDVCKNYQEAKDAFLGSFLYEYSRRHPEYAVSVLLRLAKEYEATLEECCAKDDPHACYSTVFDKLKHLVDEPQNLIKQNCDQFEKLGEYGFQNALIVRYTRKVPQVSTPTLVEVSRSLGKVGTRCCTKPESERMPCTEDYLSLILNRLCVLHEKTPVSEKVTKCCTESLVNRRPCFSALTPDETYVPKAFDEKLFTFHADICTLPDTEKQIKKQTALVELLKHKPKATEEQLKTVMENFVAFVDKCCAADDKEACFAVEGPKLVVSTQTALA
Sequence of Dihydroorotate dehydrogenase (quinone), mitochondrial (Rattus norvegicus, UniProt Q63707) (Q63707 whole entry): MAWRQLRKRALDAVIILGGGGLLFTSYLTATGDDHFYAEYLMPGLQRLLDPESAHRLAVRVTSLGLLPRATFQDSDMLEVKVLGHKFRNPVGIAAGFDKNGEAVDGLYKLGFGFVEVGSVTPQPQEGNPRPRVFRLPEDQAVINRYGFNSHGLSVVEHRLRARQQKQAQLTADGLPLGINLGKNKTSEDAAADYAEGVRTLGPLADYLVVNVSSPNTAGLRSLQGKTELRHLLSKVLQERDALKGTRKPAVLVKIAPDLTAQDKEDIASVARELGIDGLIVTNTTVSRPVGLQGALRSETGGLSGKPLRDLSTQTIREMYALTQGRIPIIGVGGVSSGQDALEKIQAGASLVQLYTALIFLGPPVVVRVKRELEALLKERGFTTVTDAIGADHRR

SMILES: Cc1cc(Nc2ccc(S(F)(F)(F)(F)F)cc2)n2nc(C(F)(F)F)nc2n1
solubility at 1 h (physchem [1]): 6.8 µg/mL (≈ 16.2 µM) | Papp B→A (in vitro [2]): 49 ×10⁻⁶ cm/s | Papp A→B (in vitro [3]): 54 ×10⁻⁶ cm/s | AUC(0-inf) [4]: 22.8 µM·h | pEC50 (Plasmodium falciparum [5]): 8.54 | fraction unbound (in vitro [6]): 0.03 | Tmax [7]: 1.2 h | solubility at 5 h (physchem [8]): 2 µg/mL (≈ 4.77 µM) | Activity (Plasmodium falciparum [9]): Active | Activity (Albumin): 83.1% | solubility at 5 h (physchem [10]): 27.6 µg/mL (≈ 65.8 µM) | clearance [11]: 8.2 mL/min/kg | Intrinsic clearance [12]: < 7 µL/min/mg | Activity [13]: 71.7% | Vd at 24 h [14]: 5.9 L/kg | bioavailability [15]: 46% | bioavailability [16]: 57% | CL free [17]: < 25 µL/min/mg | half-life [18]: 2.5 h | Vd [19]: 2.3 L/kg | pEC50 (Plasmodium falciparum [20]): 8.43 | pEC50 (Plasmodium falciparum [21]): 8.54 | Activity (Plasmodium falciparum [22]): Active | fraction unbound (in vitro [23]): 0.025 | clearance at 24 h [24]: 6.5 mL/min/kg | ED50 (Plasmodium falciparum [25]): 5.6 mg/kg | solubility at 5 h (physchem [26]): 5.1 µg/mL (≈ 12.2 µM) | Tmax [27]: 7 h | half-life [28]: 16 h | fraction unbound (in vitro [29]): 0.002 | AUC(0-inf) [30]: 120 µM·h | Cmax [31]: 4 µM | fAUC [32]: 0.85 µM·h | Cmax [33]: 3.1 µM | pEC50 (Plasmodium falciparum [34]): 8.22 | pIC50 [35]: 7.52

SMILES: Cc1c(Cc2ccc(F)c3ccncc23)c[nH]c1C(=O)NC1CC1
pIC50 [36]: < 4.00 | logD [37]: < 3.4 | pIC50 [38]: 8.40 | pEC50 (Plasmodium falciparum [34]): 9.04 | pIC50 [35]: 8.21

SMILES: Cc1c(Cc2ccc(F)c3ccncc23)c[nH]c1C(=O)N1CC(F)(F)C1
pIC50 [36]: < 4.00 | logD [37]: < 3.4 | pIC50 [38]: 8.19 | pEC50 (Plasmodium falciparum [34]): 8.47 | pIC50 [35]: 7.96

SMILES: Cc1c(Cc2cccc3ccncc23)c[nH]c1C(=O)N1CC(F)(F)C1
pIC50 [36]: < 4.00 | logD [37]: < 3.4 | pIC50 [38]: 8.11 | pEC50 (Plasmodium falciparum [34]): 8.42 | pIC50 [35]: 7.80

SMILES: COc1ccc(Cc2c[nH]c(C(=O)NC3CC3)c2C)c2cnccc12
pIC50 [36]: < 4.30 | logD [37]: < 3.4 | pIC50 [38]: 7.68 | pEC50 (Plasmodium falciparum [34]): 8.77 | pIC50 [35]: 7.64

SMILES: Cc1c(Cc2cccc3ccncc23)c[nH]c1C(=O)NC1CC1
pIC50 [36]: < 4.00 | logD [37]: < 3.4 | pIC50 [38]: 7.80 | pEC50 (Plasmodium falciparum [34]): 8.66 | pIC50 [35]: 7.96

SMILES: Cc1c(Cc2cccc3ccncc23)c[nH]c1C(=O)NCC(F)(F)F
pIC50 [36]: < 4.00 | logD [37]: < 3.4 | pIC50 [38]: 7.77 | pEC50 (Plasmodium falciparum [34]): 8.02 | pIC50 [35]: 7.46

SMILES: Cc1c(C2(c3ccc(C(F)(F)F)nc3)CC2)c[nH]c1C(=O)NC(C)c1cc(C(N)=O)[nH]n1 (stereo in doubt; form 1)
F [39]: 18% | pIC50 [38]: 6.77 | pEC50 (Plasmodium falciparum [40]): 7.34 | pIC50 [35]: 6.85

SMILES: Cc1c(C2(c3ccc(C(F)(F)F)nc3)CC2)c[nH]c1C(=O)NC(C)c1c[nH]cn1 (stereo in doubt; form 1)
TDI (Cytochrome P450 3A4): Active | pEC50 (Plasmodium falciparum [34]): 4.37

inhibition (INH) [41]: Not Active | inhibition (INH) [42]: Not Active | inhibition (INH) [44]: Not Active
SMILES: Cc1c(C2(c3ccc(C(F)(F)F)c(C#N)c3)CC2)c[nH]c1C(=O)NC(C)c1nc[nH]n1 (stereo in doubt; form 1) [listing 1 of 2 here]
Activity (L1210): Non-Toxic | Activity [43]: Non-Toxic | Activity (HepG2): Non-Toxic

SMILES: Cc1c(C2(c3ccc(C(F)(F)F)c(C#N)c3)CC2)c[nH]c1C(=O)NC(C)c1nc[nH]n1 (stereo in doubt; form 1) [listing 2 of 2 here]
Activity (Plasmodium falciparum [45]): Active
